Measured values reported in ChEMBL document CHEMBL3217735, “Polyamine-based small molecule epigenetic modulators” (Medchemcomm, 2012).
Blank lines part the entries; values can stand above or below the compound they belong to.

Assays:
[1] = target: Histone deacetylase (Homo sapiens) (UniProt Q13547+O15379+Q9UBN7+Q92769+Q9UQL6+Q8WUI4+Q9BY41+Q96DB2+P56524+Q9UKV0+Q969S8); test: Inhibition of HDAC in human HeLa cells using Fluor de Lys as substrate at 1 uM by fluorescence assay relative to control; type: cell-based
[2] = Selectivity ratio of IC50 for human MCF10A cells to IC50 for human MCF7 cells; type: ADME, cell-based, MCF-10A; conditions: MCF10A cells versus MCF7 cells, read-out: Ratio IC50
[3] = Cytotoxicity against human MCF10A cells after 96 hrs by MTA reduction assay; type: ADME, cell-based; conditions: MCF-10A
MCF7 = test: Cytotoxicity against human MCF7 cells after 96 hrs by MTA reduction assay; type: functional, cell-based; conditions: MCF7, 96 h
[4] = target: Lysine-specific histone demethylase 1A (Homo sapiens) (UniProt O60341); test: Inhibition of N-terminal His6-tagged full length human LSD1 expressed in Escherichia coli BL21 (DE3) using H3K4me2 (1 to 21 amino acids) as substrate assessed as production of H2O2 at 1 uM by luminol-dependent chemiluminescence assay relative to control

- inhibition [1]: 60%
Structure (SMILES): CN(C)c1ccc(CN(CCCNCCCCN)C(=O)CCCCC(=O)NO)cc1

Structure (SMILES): Cc1ccc(CNCCCCNCCCCCC(=O)NCc2ccc(C(=O)Nc3ccccc3N)cc2)cc1
- selectivity ratio [2]: > 25
- IC50 [3]: 24 µM
- IC50 (MCF7): 0.9 µM

- inhibition [4]: 85.1%
Structure (SMILES): C/N=C(\NC)NCCCNCCCNCCCN/C(=N/C)NC
